Measurements taken from patent US20240182456A1, “2-((4-((S)-2-(4-CHLORO-2-FLUOROPHENYL)-2-METHYLBENZO[D][1,3]DIOXOL-4-YL)PIPERIDIN-1-YL)METHYL)-1-(((S)-OXETAN-2-YL)METHYL)-1H-IMIDAZOLE DERIVATIVES AS ACTIVATORS OF THE GLP1 RECEPTOR FOR THE TREATMENT OF OBESITY” (Novartis AG, priority 2021, published 2024).
pEC50: −log10 of the molar value.

Target: human GLP1R (Homo sapiens, UniProt P43220)
Test: Human GLP1R DERET internalization assay
Assay type: cell-based
Conditions: HEK293-SNAP-hGLP1R-GloSensor cells; for pEC50: mean n=2; for Emax: relative to GLP1(7-36)
Method in brief: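 HEK293 cells stably expressing SNAP-tagged hGLP1R, labelled with SNAP-Lumi-Tb, then exposed at 37 °C to 3-fold compound dilutions (top 30 μM) with 25 μM fluorescein. Donor/acceptor TR-FRET ratio read every 30 min. EC50 and Emax from 4-parameter fits, normalised to the GLP1(7-36) EC100 (top 1 μM) and buffer-only EC0 wells.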

Sequence of human GLP1R (P43220 24-463): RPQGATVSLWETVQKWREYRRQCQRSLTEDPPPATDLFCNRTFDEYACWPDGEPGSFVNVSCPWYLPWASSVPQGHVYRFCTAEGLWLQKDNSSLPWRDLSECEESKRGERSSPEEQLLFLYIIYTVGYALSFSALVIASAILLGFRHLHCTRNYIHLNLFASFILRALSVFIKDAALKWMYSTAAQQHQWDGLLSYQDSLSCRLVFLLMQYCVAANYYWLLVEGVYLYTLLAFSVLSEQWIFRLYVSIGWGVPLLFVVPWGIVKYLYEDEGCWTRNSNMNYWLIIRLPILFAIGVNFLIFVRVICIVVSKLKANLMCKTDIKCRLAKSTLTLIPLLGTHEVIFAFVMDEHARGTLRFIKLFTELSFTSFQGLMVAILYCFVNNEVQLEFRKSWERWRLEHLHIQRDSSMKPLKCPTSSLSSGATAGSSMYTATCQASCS

SMILES	pEC50	Emax [%]
C[C@]1(c2ccc(Cl)cc2F)Oc2cccc(C3CCN(Cc4nc(C(F)(F)F)c(C(=O)O)n4C[C@@H]4CCO4)CC3)c2O1 [Compound C-7, 2-((4-((S)-2-(4-chloro-2-fluorophenyl)-2-methylbenzo[d][1,3]dioxol-4-yl)piperidin-1-yl)methyl)-1-(((S)-oxetan-2-yl)methyl)-4-(trifluoromethyl)-1H-imidazole-5-carboxylic acid]	< 4.52	3
Cc1nc(CN2CCC(c3cccc4c3O[C@@](C)(c3ccc(Cl)cc3F)O4)CC2)n(C[C@@H]2CCO2)c1/C=C/C(=O)O [Compound C-5, (E)-3-(2-((4-((S)-2-(4-chloro-2-fluorophenyl)-2-methylbenzo[d][1,3]dioxol-4-yl)piperidin-1-yl)methyl)-4-methyl-1-(((S)-oxetan-2-yl)methyl)-1H-imidazol-5-yl)acrylic acid]	7.05	58
C[C@]1(c2ccc(Cl)cc2F)Oc2cccc(C3CCN(Cc4nc(/C=C/C(=O)O)cn4C[C@@H]4CCO4)CC3)c2O1 [Compound C-2, (E)-3-(2-((4-((S)-2-(4-chloro-2-fluorophenyl)-2-methylbenzo[d][1,3]dioxol-4-yl)piperidin-1-yl)methyl)-1-(((S)-oxetan-2-yl)methyl)-1H-imidazol-4-yl)acrylic acid]	< 4.52	5
C[C@]1(c2ccc(Cl)cc2F)Oc2cccc(C3CCN(Cc4ncc(/C=C/C(=O)O)n4C[C@@H]4CCO4)CC3)c2O1 [Compound C-1, (E)-3-(2-((4-((S)-2-(4-chloro-2-fluorophenyl)-2-methylbenzo[d][1,3]dioxol-4-yl)piperidin-1-yl)methyl)-1-(((S)-oxetan-2-yl)methyl)-1H-imidazol-5-yl)acrylic acid]	6.47	67
